Data as given in patent US12396461B2, “Functional peptides having antimicrobial activity against phytopathogenic microorganisms” (TOYOTA JIDOSHA KABUSHIKI KAISHA, priority 2019, dated 2025).
“And” between values parts separate entries of the source, which are not always exact repeats. Equal values may be shown once. “Also recorded” adds a separate entry of the source. Read-outs that look alike come from different tables or passages of the source. Where no end group is shown, it is not given here.

Legend:
Botrytis cinerea [1] = assay: Botrytis cinerea leaf inoculation test (tomato leaf); type: in vivo; conditions: 25° C. for 2 days
Protocol: In the present example, a suspension comprising Botrytis cinerea and a peptide to be tested was dropped on a plant leaf, and lesions were then observed by visual inspection to evaluate the antimicrobial activity of the tested peptide. First, the pores of Botrytis cinerea were suspended in a potato dextrose broth (PDB) to result in a spore concentration of 5×10^5 spores/ml, so as to prepare a PDB suspension spore solution. Subsequently, a peptide to be tested (TsORF6-1) was added to the PDB suspension spore solution, so that the final concentration of the peptide to be tested became 0 μM, 1 μM, 10 μM or 100 μM. Thereafter, 10 μl each of the PDB suspension spore solution containing the peptide to be tested was dropped on the front side and the back side of the leaf of tomato (variety name: “Momotaro Fight”). In this condition, incubation was carried out at 25° C. for 2 days. Thereafter, the front and back sides of the leaf were observed by visual inspection.

[2] = test system: Pseudomonas syringae pv. tomato
[3] = test system: Colletotrichum destructivum; type: cell-based; parameters: key to Plate antimicrobial activity test Colletotrichum destructivum, level: a case where hyphae extended to the entire well and no antimicrobial activity was found is defined as “level 0,”; a case where hyphae extended to less than a half of the well and thus the peptide inhibited the growth of the hyphae is defined as “level 1,”; a case where ungerminated spores were present and the peptide partially inhibited the germination is defined as “level 2,”; a case where all spores were ungerminated and the peptide completely inhibited the germination is defined as “level 3.”; conditions: for Plate antimicrobial activity test Colletotrichum destructivum, level: 25° C. for 1 day or 2 days, microscopic observation
Pyricularia oryzae = type: cell-based; parameters: key to Plate antimicrobial activity test Pyricularia oryzae, level: a case where hyphae extended to the entire well and no antimicrobial activity was found is defined as “level 0,”; a case where hyphae extended to less than a half of the well and thus the peptide inhibited the growth of the hyphae is defined as “level 1,”; a case where ungerminated spores were present and the peptide partially inhibited the germination is defined as “level 2,”; a case where all spores were ungerminated and the peptide completely inhibited the germination is defined as “level 3.”; conditions: for Plate antimicrobial activity test Pyricularia oryzae, level: 25° C. for 1 day or 2 days, microscopic observation
Fusarium oxysporum = type: cell-based; parameters: key to Plate antimicrobial activity test Fusarium oxysporum, level: a case where hyphae extended to the entire well and no antimicrobial activity was found is defined as “level 0,”; a case where hyphae extended to less than a half of the well and thus the peptide inhibited the growth of the hyphae is defined as “level 1,”; a case where ungerminated spores were present and the peptide partially inhibited the germination is defined as “level 2,”; a case where all spores were ungerminated and the peptide completely inhibited the germination is defined as “level 3.”
Ralstonia solanacearum = conditions: 100 μM
[4] = test system: Erwinia carotovora subsp. carotovora; conditions: 100 μM
Botrytis cinerea [5] = type: cell-based; parameters: key to Plate antimicrobial activity test Botrytis cinerea, level: a case where hyphae extended to the entire well and no antimicrobial activity was found is defined as “level 0,”; a case where hyphae extended to less than a half of the well and thus the peptide inhibited the growth of the hyphae is defined as “level 1,”; a case where ungerminated spores were present and the peptide partially inhibited the germination is defined as “level 2,”; a case where all spores were ungerminated and the peptide completely inhibited the germination is defined as “level 3.”; conditions: for Plate antimicrobial activity test Botrytis cinerea, level: 25° C. for 1 day or 2 days, microscopic observation
[6] = test system: Colletotrichum destructivum; assay: Colletotrichum destructivum leaf inoculation test (Chinese cabbage leaf); type: in vivo; conditions: 25° C. for 4 days; for lesion of Colletotrichum destructivum on Chinese cabbage leaf, result in words: FIG. 3; for Leaf inoculation test Chinese cabbage/Colletotrichum destructivum: lesions by visual inspection, symbols ◯/Δ/X not defined
Protocol: In the present example, a suspension comprising Colletotrichum destructivum and a peptide to be tested was dropped on a plant leaf, and lesions were then observed by visual inspection to evaluate the antimicrobial activity of the tested peptide. First, the pores of Colletotrichum destructivum were suspended in water to result in a spore concentration of 5×10^5 spores/ml, so as to prepare a water suspension of spores. Subsequently, a peptide to be tested (TsORF6-1) was added to the water suspension of spores, so that the final concentration of the peptide to be tested became 0 μM, 1 μM, 10 μM or 100 μM. Thereafter, 10 μl each of the water suspension of spores containing the peptide to be tested was dropped on the front side and the back side of the leaf of Chinese cabbage (variety name: “Kigokoro 85”). In this condition, incubation was carried out at 25° C. for 4 days. Thereafter, the front and back sides of the leaf were observed by visual inspection.

[7] = test system: Xanthomonas oryzae pv. oryzae
[8] = test system: Colletotrichum orbiculare; type: cell-based; parameters: key to Plate antimicrobial activity test Colletotrichum orbiculare, level: a case where hyphae extended to the entire well and no antimicrobial activity was found is defined as “level 0,”; a case where hyphae extended to less than a half of the well and thus the peptide inhibited the growth of the hyphae is defined as “level 1,”; a case where ungerminated spores were present and the peptide partially inhibited the germination is defined as “level 2,”; a case where all spores were ungerminated and the peptide completely inhibited the germination is defined as “level 3.”; conditions: for Plate antimicrobial activity test Colletotrichum orbiculare, level: 25° C. for 1 day or 2 days, microscopic observation
[9] = (FIG. 1, Table 3), concentration not given

Sequence	Plate antimicrobial activity test Colletotrichum destructivum, level ([3]; peptide 1 μM)	Plate antimicrobial activity test Colletotrichum destructivum, level ([3]; peptide 10 μM)	Plate antimicrobial activity test Colletotrichum destructivum, level ([3]; peptide 100 μM)	Plate antimicrobial activity test Pyricularia oryzae, level (Pyricularia oryzae; peptide 1 μM)	Plate antimicrobial activity test Pyricularia oryzae, level (Pyricularia oryzae; peptide 10 μM)	Plate antimicrobial activity test Pyricularia oryzae, level (Pyricularia oryzae; peptide 100 μM)	Plate antimicrobial activity test Fusarium oxysporum, level (Fusarium oxysporum)	Plate antimicrobial activity test Botrytis cinerea, level (Botrytis cinerea [5]; peptide 1 μM)	Plate antimicrobial activity test Botrytis cinerea, level (Botrytis cinerea [5]; peptide 10 μM)	Plate antimicrobial activity test Botrytis cinerea, level (Botrytis cinerea [5]; peptide 100 μM)	Leaf inoculation test Chinese cabbage/Colletotrichum destructivum ([6]; peptide 10 μM)	Leaf inoculation test Chinese cabbage/Colletotrichum destructivum ([6]; peptide 100 μM)	Plate antimicrobial activity test Colletotrichum orbiculare, level ([8]; peptide 1 μM)	Plate antimicrobial activity test Colletotrichum orbiculare, level ([8]; peptide 10 μM)	Plate antimicrobial activity test Colletotrichum orbiculare, level ([8]; peptide 100 μM)	also measured
MKVMIVVKTKVKNKKVAKMMVK [TsORF6-1]	0	0	3	0	0	2	2 and 0	0	0	3	◯	◯	0	0	2	Leaf inoculation test Tomato/Botrytis cinerea (Botrytis cinerea [1]; peptide 100 μM, tomato leaf, lesions by visual inspection, symbols ◯/Δ/X not defined): ◯; growth of Pseudomonas syringae pv. tomato, result in words [2]: could inhibit the growth; Inhibitory rate Pseudomonas syringae pv. tomato ([2]; 100 μM): 90.6%; OD600 Pseudomonas syringae pv. tomato ([2]; 100 μM): 0.2; germination of Colletotrichum destructivum, result in words [3, 9]: completely inhibited in terms of germination; also recorded: could inhibit germination; germination of Pyricularia oryzae, result in words (Pyricularia oryzae; [9]): completely inhibited in terms of germination; also recorded: could inhibit germination; germination of Fusarium oxysporum, result in words (Fusarium oxysporum): completely inhibited in terms of germination; also recorded: could inhibit germination; Inhibitory rate Ralstonia solanacearum (Ralstonia solanacearum; calculated from OD600 versus water added): −5.2%; OD600 Ralstonia solanacearum (Ralstonia solanacearum; cultured at 28° C. a whole day and night): 2.7; Inhibitory rate Erwinia carotovora subsp. carotovora [4]: −14.9%; OD600 Erwinia carotovora subsp. carotovora [4]: 2.2; germination of Botrytis cinerea, result in words (Botrytis cinerea [5]; [9]): completely inhibited in terms of germination; also recorded: could inhibit germination; lesion of Colletotrichum destructivum on Chinese cabbage leaf, result in words ([6]; water suspension of spores containing 10 μl peptide): a lesion of Colletotrichum destructivum was not observed; lesion of Colletotrichum destructivum on Chinese cabbage leaf, result in words ([6]; water suspension of spores containing 100 μl peptide): a lesion of Colletotrichum destructivum was not observed; Inhibitory rate Xanthomonas oryzae pv. oryzae ([7]; 100 μM, calculated from OD600 versus water added): 47.6%; OD600 Xanthomonas oryzae pv. oryzae ([7]; 100 μM, cultured at 28° C. a whole day and night): 1.1; growth of Xanthomonas oryzae pv. oryzae, result in words ([7]; Table 4): could inhibit the growth; germination of Colletotrichum orbiculare, result in words [8, 9]: completely inhibited in terms of germination; also recorded: could inhibit germination
MKVMIVVKTKVKNKKVAKMMVKEDEKNKRVITMKEELMVVAEEEAYRRV RGGMGW (MKVMIVVKTKVKNKKVAKMMVKEDEKNKRVITMKEELMVVAEEEAYRRVRGGMGW; listed as Solanum lycopersicum) [TsORF6, peptide consisting of 55 amino acid residues identified in tomato xylem sap; total chain]	0	0	0	0	0	2	3 and 0	0	0	3	◯	◯	0	0	1	lesion of Botrytis cinerea on tomato leaf, result in words (Botrytis cinerea [1]; FIG. 2, PDB suspension spore solution containing 100 μl peptide): a lesion of Botrytis cinerea was not observed
